Laboratory results published in patent US6849596B1, “Regulatory/unfolding peptides of ezrin” (priority 1999, dated 2005).
“Also recorded” adds a separate entry of the source.

What was measured:
[1] = test system: IgG serum antibody response to Ovalbumin; test: Adjuvant activity: IgG serum antibody response to Ovalbumin in mice; type: in vivo; conditions: for IgG response recorded as OD: 50 micrograms Ovalbumin, two weeks, sera 1 to 100; for IgG response recorded as OD then rebased relative to 100 for each control: control = 100
Experimental: Adjuvant Activity of Hepreceptor Peptides Enhancing the IgG Serum Antibody Response to Ovalbumin in Mice
The IgG response in mice two weeks after an injection of 50 micrograms of Ovalbumin plus various concentrations of different hepreceptor peptides was determined. IgG response was measured by Optical Density (OD) of a 1 to 100 dilution of mouse sera in the presence of Ovalbumin.
IgG response recorded as OD
IgG response recorded as OD then data rebased relative to 100 for each control

[2] = test system: transplanted sarcoma of the uterus SM-322; test: Transplanted mouse sarcoma SM-322 model; type: in vivo, CBA mice; conditions: control 12-16
activated macrophages = test: Induction of activated macrophages in mice (peritoneal exsudate); type: in vivo
Experimental: Groups of three mice (CDAxC57B1)F1 weighing 22-24 g were injected abdominally with each peptide solution of 1.0 microgram of peptide dissolved in 0.5 ml of physiological saline. After 24 hours the animals were killed using neck vertebrae dislocation and 5 ml of Hanks solution was injected into the abdomen. The abdomen was massaged for 30 seconds and then the peritoneal liquid was collected. The collected liquid was filtered using a nylon filter into siliconised tubes containing 1.5 mg/ml EDTA. The number of nucleus containing cells in […] of filtrate were then assessed under microscopic examination using a Nihon hemocytometer. The cells were pelleted by centrifugation for 5 minutes at 800 g, the pellet was resuspended in fetal calf serum, the cell suspension was dropped on to a glass microscope slide and dried then fixed in methanol and stained with Romanovski's colouring agent. Morphological analysis of the cells of the peritoneal exsudate were performed using an Opton optical microscope at 1600 magnifications. The number of lymphocytes, resting macrophages, activated macrophages, granulocytes and other cell types were assessed.

[3] = test system: human Peripheral Blood Mononuclear Cells; test: In vitro activation of human PBMC, tritiated thymidine incorporation; type: cell-based; conditions: for incorporation of 3H thymidine: three days, Control 370
IL-8 = IL-8 production in human WBC; type: cell-based; conditions: 48 hour incubation, without peptide 18900
Experimental: The suppressive effect of increasing concentrations of Rupe312, a Hepreceptor peptide, on the expression of IL-8 by human WBC after a 48 hour incubation at 37° C. was detected. IL-8 is a chemotactic factor that is produced in response to inflammatory stimulus which attracts and activates T cells, neutrophils, basophils, granulocytes but not monocyte/macrophages. The inhibition of IL-8 may play a role in the selective activity of Rupe 312 in activating monocytes macrophages. The measurement of IL-8 provides an assay for determining the activity of various Hepreceptor derived peptides.

[4] = test system: transplanted cervical cancer CUC-5; test: Transplanted mouse cervical cancer model CUC-5; type: in vivo, CBA mice; conditions: for Percent decrease in tumour volume relative to control / Days of life expectancy: CUC-5; for Days of life expectancy: control 47-76
Source text: Anticancer Activity of Hepreceptor Peptides on the Growth of Transplanted Sarcoma of the Uterus SM-322 and on Cancer of the Uterine Cervix CUS-5 Performed in CBA Mice Using Rupe312 and Rupe414 as Examples
Transplanted mouse cervical cancer model CUC-5 (epithelial tumour)
Primary tumours were induced in female mice using methylcholantrene. A few primary turnouts were then auto-transplanted into the uterine cervix. The life expectancy of mice with transplanted tumours was 43 days.
CBA female mice weighed 21.4=/−1.2 g. and were 2-3 months old. The tumours were introduced as a 0.5 ml of tumour suspension (1 g tumour per 10 ml of Igla medium) and ten mice used in each treatment group.
Lyophylised peptide were dissolved in sterile physiological saline immediately before use in three concentrations. 0.5 ml of solution was injected twice weekly into the peritoneum of the mice for the duration of the experiment. Three different concentrations of peptide were used leading to three final doses per injection per mouse of 10, 1.0 and 0.1 micrograms.
The average percent decrease of tumour volume relative to the control group was recorded at three time points. The longevity of the mice in the treatment groups and control groups was compared and the histology of the tumours between control and treatment groups was compared.

[5] = IP injection 0.01 micrograms per mouse
[6] = IP injection 0.1 micrograms per mouse
[7] = IP injection 1 microgram per mouse
[8] = IP injection 10 micrograms per mouse
[9] = 0.1 Microg/mouse IP twice weekly
[10] = 10 Microg/mouse IP twice weekly

In the case of “KKRRETVERE (Hepreceptor peptide) [Rupe312]”, the “IgG response recorded as OD” value [1, 5] is reported as 0.68 OD, the “IgG response recorded as OD then rebased relative to 100 for each control” value [1, 5] is reported as 99 and the “IgG response recorded as OD” value [1, 6] is reported as 0.88 OD. For the same sequence, the “IgG response recorded as OD then rebased relative to 100 for each control” value [1, 6] was 128, the “IgG response recorded as OD” value [1, 7] was 0.55 OD and the “IgG response recorded as OD then rebased relative to 100 for each control” value [1, 7] was 80. For the same sequence, the “IgG response recorded as OD” value [1, 8] was 0.44 OD, the “IgG response recorded as OD then rebased relative to 100 for each control” value [1, 8] was 64 and the “Days of life expectancy” value [2, 9] was 12 to 22 days. The “Days of life expectancy” value ([2]; 1 Microg/mouse IP twice weekly) was 12 to 19 days, the “Days of life expectancy” value [2, 10] was 12 to 27 days and the “activity in increasing activated macrophages relative to HEP1” value (activated macrophages; 1.0 microgram peptide/mouse) was “significantly more active than HEP1”. For the same sequence, the “Activated macrophages as a percent of total number of cells” value (activated macrophages; 1.0 microgram peptide/mouse injected abdominally, after 24 hours, saline 1.9) was 13.9%, the “activity relative to HEP1” value ([3]; PBMC activation, thymidine incorporation) was “significantly more active than HEP1; also recorded: ten fold higher activity than HEP1” and the “concentration of peak activity” value ([3]; PBMC proliferation) was “around 3 nanograms/ml”. For the same sequence, the “incorporation of 3H thymidine” value ([3]; Peptide 0.0001 micro g/ml) was 563 radioactive counts per minute, the “incorporation of 3H thymidine” value ([3]; Peptide 0.0003 micro g/ml) was 742 radioactive counts per minute and the “incorporation of 3H thymidine” value ([3]; Peptide 0.001 micro g/ml) was 976 radioactive counts per minute. For the same sequence, the “incorporation of 3H thymidine” value ([3]; Peptide 0.003 micro g/ml) was 3222 radioactive counts per minute, the “incorporation of 3H thymidine” value ([3]; Peptide 0.01 micro g/ml) was 656 radioactive counts per minute and the “incorporation of 3H thymidine” value ([3]; Peptide 0.03 micro g/ml) was 539 radioactive counts per minute. The “incorporation of 3H thymidine” value ([3]; Peptide 0.1 micro g/ml) was 533 radioactive counts per minute, the “incorporation of 3H thymidine” value ([3]; Peptide 0.3 micro g/ml) was 611 radioactive counts per minute and the “incorporation of 3H thymidine” value ([3]; Peptide 1 micro g/ml) was 472 radioactive counts per minute. The “incorporation of 3H thymidine” value ([3]; Peptide 3 micro g/ml) was 455 radioactive counts per minute, the “incorporation of 3H thymidine” value ([3]; Peptide 10 micro g/ml) was 405 radioactive counts per minute and the “IL-8 concentration in culture” value (IL-8; Rupe312 0.001 micrograms/ml) was 13900 picrograms/ml. For the same sequence, the “IL-8 concentration in culture” value (IL-8; Rupe312 0.003 micrograms/ml) was 10700 picrograms/ml, the “IL-8 concentration in culture” value (IL-8; Rupe312 0.01 micrograms/ml) was 8984 picrograms/ml and the “IL-8 concentration in culture” value (IL-8; Rupe312 0.03 micrograms/ml) was 7869 picrograms/ml. The “IL-8 concentration in culture” value (IL-8; Rupe312 0.1 micrograms/ml) was 6426 picrograms/ml, the “Percent decrease in tumour volume relative to control” value ([4]; 0.1 Microg/mouse IP twice weekly, Day 8) was 50% and the “Percent decrease in tumour volume relative to control” value ([4]; 0.1 Microg/mouse IP twice weekly, Day 12) was 18%. For the same sequence, the “Percent decrease in tumour volume relative to control” value ([4]; 0.1 Microg/mouse IP twice weekly, Day 19) was 45%, the “Days of life expectancy” value [4, 9] was 42 to 76 days and the “Percent decrease in tumour volume relative to control” value ([4]; 1 Microg/mouse IP twice weekly, Day 8) was 50%. For the same sequence, the “Percent decrease in tumour volume relative to control” value ([4]; 1 Microg/mouse IP twice weekly, Day 12) was 26%, the “Percent decrease in tumour volume relative to control” value ([4]; 1 Microg/mouse IP twice weekly, Day 19) was 49% and the “Days of life expectancy” value ([4]; 1 Microg/mouse IP twice weekly) was 47 to 76 days. For the same sequence, the “Percent decrease in tumour volume relative to control” value ([4]; 10 Microg/mouse IP twice weekly, Day 8) was 50%, the “Percent decrease in tumour volume relative to control” value ([4]; 10 Microg/mouse IP twice weekly, Day 12) was 25% and the “Percent decrease in tumour volume relative to control” value ([4]; 10 Microg/mouse IP twice weekly, Day 19) was 49%. The “Days of life expectancy” value [4, 10] was 48 to 76 days and the “change in life expectancy” value ([4]; slower growing transplanted cervical cancer) was “no significant increase (or decrease) in life expectancy was detected”.
